According to patent US9801973B1, “Peptide having zirconia-binding capacity” (SEOUL NATIONAL UNIVERSITY R&DB FOUNDATION, priority 2015, dated 2017):

Experiments:
[1] = binding assay using an avidin-biotin complex (binding affinity of zirconia-binding peptide); conditions: biotin-labeled peptide, 100 nM to 1 μM, room temperature 15 hours
Source text: (§1) In order to examine the binding affinities of the peptides synthesized in Example 1 and Comparative Examples 1 and 2, the peptides were labeled with biotin. Each of the synthesized peptide domains was biotinylated using EZ-Link Sulfo-NHS-Biotin (Pierce Biotechnology, USA) according to the manufacturer's instruction, and unbound byproducts were removed by ultrafiltration that is a membrane separation method based on a pressure difference. The molecular weights of the synthesized products were measured by mass spectrometry. The synthesized products were analyzed and purified by reverse phase liquid chromatography. For analysis, a C18 column having a diameter of 4.6 mm was used, and 0.1% TFA/H2O and 0.092% TFA/acetonitrile were flushed onto the column at a rate of 1 ml/min with a gradient of 0-60% for 30 minutes. The wavelength of the UV detector used was 220 nm. For purification, a column having a diameter of 2.2 cm was used, and a flow rate of 20 ml/min and the solvent and detection wavelength as described above were used. Only the biotin-labeled peptide fraction was collected, and concentrated using a rotary evaporator to remove the solvent, followed by freeze-drying.
To measure the binding affinity of the zirconia-binding peptide, a binding assay using an avidin-biotin complex was performed. Specifically, one zirconia disc was placed in each well of a 12-well polystyrene plate, and then blocked with a blocking buffer (0.1 M NaHCO3 (pH 8.6), 5 mg/ml BSA, 0.02% NaN3 (optional), filter sterilize) for at least one hour. Next, the blocking buffer was discarded, and each zirconia disc was strongly washed six times or more with a washing buffer (TBS+0.1% [v/v] Tween-20), after which 200 μl of each of the zirconia-binding peptide Zr-BP (SEQ ID NO: 1) of Example 1 and the peptides Zr-BPC (SEQ ID NO: 2), PL1 (SEQ ID NO: 3) and PL2 (SEQ ID NO: 4) of Comparative Examples 1 and 2, which were biotin-labeled, synthesized, separated and purified in Example 3-1, was dispensed to the surface of each zirconia disc at a concentration ranging from 100 nM to 1 μM. Each zirconia disc was incubated at room temperature for 15 hours, and then washed strongly with a washing buffer, and 200 μl of a 1:500 dilution of ExtrAvidin-peroxidase (Cat. #E2886, Sigma-Aldrich, USA) in a blocking buffer was dispensed to the surface of each zirconia disc. Each zirconia disc was incubated at room temperature for 1 hour, and then washed strongly with a washing buffer, after which 200 μl of a substrate solution (2,2′-AZINO-BIS, Cat. #A3219, Sigma-Aldrich, USA) was dispensed to the surface of each zirconia disc and allowed to react at room temperature for 20 minutes so as to develop color. Each zirconia disc was treated with 200 μl of 1% SDS solution to stop the reaction, and the absorbance at 405 nm was measured.

[2] = binding assay using an avidin-biotin complex (maximum binding amount per zirconia disc)
Source text: as §1
To examine the maximum binding amount of the zirconia-binding peptide Zr-BP (SEQ ID NO: 1) per unit area of the zirconia disc surface, a binding assay using a avidin-biotin complex was performed. Specifically, one zirconia disc was placed in each well of a 12-well polystyrene plate, and then blocked with a blocking buffer (0.1 M NaHCO3 (pH 8.6), 5 mg/ml BSA, 0.02% NaN3 (optional), filter sterilize) for at least one hour. […] Each zirconia disc was treated with 200 μl of 1% SDS solution to stop the reaction, and the absorbance at 405 nm was measured.

Sequence | absorbance value at 405 nm (binding to the zirconia disc surface) ([1]; FIG. 2) | absorbance value at 405 nm (binding to the zirconia disc surface) ([1]; FIG. 1) | maximum amount of zirconia-binding peptide bound to the surface of one zirconia disc ([2]; back-calculation from molecular weight and dispensing amount, disc diameter 15.5 mm) | concentration showing the maximum absorbance value ([2]; biotin-labeled peptide, 100 nM to 40 mM, 200 μl per disc, room temperature 15 hours, FIG. 3) | zirconia-binding peptide fixed per mm^2 of the zirconia disc surface ([2]; per mm^2, disc diameter 15.5 mm)
IGNSFSFPAVYR (PL1) | do not bind to the zirconia disc surface | – | – | – | –
LRLDVDRAISLL (PL2) | do not bind to the zirconia disc surface | – | – | – | –
VSAAGTKASPAV (Zr-BPC) | – | binding affinity thereof is reduced | – | – | –
VSPFGTKWSPFV (Zr-BP) | higher than those of the peptides (PL1 and PL2) of Comparative Example 2 | higher than that of the peptide Zr-BPC of Comparative Example 1 | 622.8 µg | 2 mM | about 3.3 μg
